In PubChem BioAssay (NCI):
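All cell lines were grown in 96-well plates and treated with compound for 48 hours. TGI is the concentration that stops growth completely.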

Tests used:
LXFL 529 NSCLC = assay: NCI tumour cell line growth inhibition, 48 h
P388/ADR leukemia = assay: NCI tumour cell line growth inhibition, 48 h

Compound	TGI (LXFL 529 NSCLC)	TGI (P388/ADR leukemia)
Clc1ccc(C[P+](c2ccccc2)(c2ccccc2)c2ccccc2)c(Cl)c1	12.5 µM	–
CCOC(=O)CNC(=O)N(CC)C12CC3CC(CC(C3)C1)C2	–	421 µM
CCOC(=O)c1ccc(N[C@@H]2c3cc4c(cc3C(c3cc(OC)c(O)c(OC)c3)[C@H]3C(=O)OCC32)OCO4)cc1O (some centres undefined)	–	0.324 µM
COc1ccc(S(=O)(=O)c2ccccc2[N+](=O)[O-])cc1	> 100 µM	–
